Assay results as given in US7384657B2, “Composition of natural herb extract for treating cardiovascular disease and its method of preparation thereof” (priority 2004, dated 2008).
Entries after “also recorded” stand apart in the source; their conditions may differ. Where two headings read alike, the source gives them in different places.

Assays:
[1] = toleration time in anoxic state in mice; type: in vivo
Description: (§1) The properties of Danshensu are studied.

[2] = pituitary myocardial ischemia in rats, electrocardiac abnormality; type: in vivo
Description: as §1

[3] = dog model having myocardial infarction; type: in vivo
Description: as §1

[4] = tested on: isolated pig's coronary artery; test: isolated pig's coronary artery perfusion (modified Oglatree preparation)
Description: as §1
Effect of Danshensu [β-(3,4)-dihydroxyphenyl lactic acid] upon the isolated pig's coronary artery is studied. […] The method, which is different from the method of Oglatree isolated coronary artery preparation, is to have both ends of the isolated pig's coronary artery segment ligated to the perfusion cannula.
Test the same specimen by successively giving it 3 crescendo doses of morphine hydrochloride. Record the largest titer of P after each administration. Using Krbs-Henselait liquid to douche the perfusion system 3 times. When the basic line returns to normal, the effect is very obvious after the application of Danshensu (causing the medical concentration in the perfusion system turning into […]). Repeatedly administrate the same 3 crescendo doses of morphine hydrochloride successively like above. Observe the effect of Danshensu on the systole of coronary artery caused by morphine. Again, after the above-mentioned doses of Danshensu are applied, administrate repeatedly 4 crescendo doses of hydrochloric propanol. Observe the effect of Danshensu on the coronary artery systole caused by propanol. The sequence of administration resembles the above. In addition, after the application of Danshensu, repeat the administration by giving 3 crescendo doses of KCI and 3 crescendo doses of reserpine. […]

[5] = tested on: isolated heart; test: isolated heart: coronary blood flow, fibrinolysis
Description: as §1

[6] = pharmacokinetics of Danshensu after auricular vein injection; type: in vivo, rabbits; conditions: 30 mg/kg i.v.
Procedure: Pharmacokinetics of Danshenu in the biological body is studied. After the selected 5 rabbits' auricular veins are injected with Danshensu (injection of 30 mg/kg), blood is drawn regularly every 15, 30, 60, 90, 120 and 150 minutes. Obtain blood plasma and manipulate like before. Determine concentration of the blood medication. Use blank plasma for controlling. According to the mean from the experimental data, with the use of the logarithm and time of Danshensu concentration, create chart which is a straight line.

[7] = internal distribution of Danshensu by HPLC after intravenous Danshen preparation; type: in vivo, domestic rabbit; conditions: after i.v. Danshen preparation
Procedure: HPLC is used to study the domestic rabbit's internal distribution and content of the Chinese Danshen preparation's Danshensu. […] Adrenal tissue's average is 14.15 μg/g (+0.33), liver's tissue average 17.69 μg/g (+4.44), lung's tissue average 19.73 μg/g (+4.00), heart's tissue average 12.30 μg/g (+2.18), brain's tissue average 5.45 μg/g (+0.60) and spleen's tissue average 4.66 μg/g (+0.68).

[8] = puerarin in dog with acute myocardial ischemia / coronary blockage; type: in vivo
Procedure: Effect of Puerarin upon the heart is studied. The main effect of Puerarin Pur is to change the myocardial ischemia. Apply intervenous injection of puerarin to the dog which contracts the acute myocardial ischemia. […] After the aortic pressure is adjusted to the level of pre-administration, tension-time index and the rising speed of left ventricular pressure also return to the level of pre-administration.
5 minutes after the midpoint of the anterior branch of the dog's coronary artery encountering acute blockage, intravenous injection of puerarin 20 mg/kg is administrated. […] The function lasts 3˜4 hours. It has no effect on LVSD. 15 minutes after the administration, the ST drops obviously. […] Electrocardiographic index reduces clearly and the pulmonary incarceration has not risen.

[9] = puerarin drops in patients of acute myocardial infarction; type: in vivo, human
[10] = puerarin: patient's blood 6-K-PGF1a, HDL, TXB2; type: in vivo, human; conditions: patients
Description: Puerarin can even heighten the patient's blood 6-K-PGF1a [6-acetone-PGF1a (prostaglandin-stable metabolism product)] and High Density Lipid (HDL) level. […] As a result, it enables the coronary artery and the peripheral blood vessel to expand, and therefore, it resists angina pectoris, reduces blood pressure, lowers myocardial oxygen consumption and improves the Ischemic ECG and etc.

[11] = arrhythmia caused by chloroform and the adrenal gland; type: in vivo, domestic rabbit
Description: The effect of puerarin on the rhythm of heart is examined. […] Obviously, it also […] the mean of ventricular premature heartbeat and ventricular tachycardia caused by ouabin.

[12] = tested on: β-receptor; test: radioactive ligand analysis on myocardial membrane; type: binding, rats
Description: (§2) The effecter of β-receptor is the adenylate cyclase (AC). Excitant of the β-receptor can enable the AC to activate and the antagonist can cause it to inhibit. […] It points out puerarin is an antagonist of one type of β-receptors. It has the selective action on the heart's β-receptor. It can achieve various curative effects on the arrhythmia.

[13] = tested on: adenylate cyclase; test: activation of dissolved adenylate cyclase; type: biochemical
Description: as §2

[14] = tested on: artery's endothelial cell; test: arterial endothelial cell culture; type: cell-based; conditions: puerarin 250 μg/ml, 6 hours, 36° C.
Procedure: The effect of puerarin on the arterial endothelial cell is also examined. Puerarin has very outstanding effect on the artery's endothelial cell. Add puerarin (250 μg/ml) to the cellular fluid, but no addition of puerarin in the control group. After 6 hours of culture at 36° C., determine the content of carboxylic proline in both the internal and the external fluid of the endothelial cells respectively. […] The content of carboxylic proline, in the […], drops to Experiment Group's 2.70±0.06 μg/ml and 2.43±0.21 μg/ml from 3.35±0.05 μg/ml and 2.68±0.15 μg/ml in the Control group's internal and external endothelial cells. With regards to osamine polysaccharide, it drops to Experiment Group's 0.95±0.12 μg/ml and 0.68±0.15 μg/ml from 1.77±0.12 μg/m and 1.57±0.08 μg/ml in the internal fluid of Control group. […] It regulates the permeability of the water solubility and the substance of plasma molecule. Besides having an effect on the selective barrier action, its complex enzyme system can synthesize and secrete many active substances such as PGI2.

[15] = absorption, distribution and excretion of puerarin in rats; type: in vivo
Description: The pharmacokinetics of puerarin is also studied. Absorption and distribution of medication of Puerarin are studied. […] External experiment proves puerarin's destruction in the enterogastric tract is very minor, but can be metabolized by the tissue of blood, liver, kidney and etc. It is also able to integrate with the liver, kidney, lung and plasma protein. Pharmacokinetics parameter of the rats's intravenous injection indicates puerarin's distribution in the body is vast and clears up fast. It is not easy to store.
(§3) Metabolism of medication of Puerarin is studied. 24 hours after the rats taken puerarin orally, 1.85% and 35.7% excreted as urine and stool. After the intravenous injection, 37.62%, 7.39% and 3.65% are secreted from the urine, stool and bile respectively. Absorption, by orally taking, is very little. 36 hours after puerarin is orally taken by normal person, only 0.78% […] secrete from the urine; 72 hours after the oral taking, 73.3% secrete from the stool.

[16] = excretion of oral puerarin in normal person; type: in vivo, human
Procedure: as §3

[17] = tested on: TA97, TA98, TA100 and TA102; test: Ames test; type: cell-based, typhoid Salmonella bacillus; conditions: 1, 5, 50, 500, 5000 μg per dish, S9 and non-S9
Procedure: Use TA97, TA98, TA100 and TA102 as testing strain; puerarin 1, 5, 50, 500, and 5000 μg as dish. In the experiment of S9 and non-S9, its reverse colonial mutation setting figure is basically the same, that is, mutation rate (MR)<2. It has no dosage-response relation. […] Use human microblood nutrient for culturing. Add human blood to the puerarin injection. Under the condition of isolated body, add S9 activation system, then, culture for 53 hours. […] Therefore, hereditary toxicity has not been indicated.

[18] = tested on: polychromatic erythrocytes; test: polychromatic erythrocytes micronucleus; type: in vivo; conditions: every dosage group
[19] = teratogenicity and mutagenicity in pregnant animals and male germ cells; type: in vivo, rats; conditions: 50 and 150 mg/kg
Procedure: Select 50 pregnant rats. Observe and analyze 450 pregnant mice. Choose 50 and 150 mg/kg as puerarin dosage. […] The deformation of appearance, organ or bone is not found in all the examined fetal mice. It proves neither the puerarin nor the solvent has mutagenic activity on the pregnant mice.

[20] = mice and dog; cited from earlier work
[21] = single intravenous injection 5 mg/kg; cited from earlier work

O=C(O)[C@H](O)Cc1ccc(O)c(O)c1 [Danshensu, D(+) β-(3,4-dihydroxyphenyl) lactic acid]
toleration time in anoxic state [1]: prolong the toleration time in anoxic state
electrocardiac abnormality of pituitary myocardial ischemia [2]: restore the electrocardiac abnormality
area suffered from myocardial infarction [3]: the area suffered from myocardial infarction is reduced
heart function [3]: the heart function is improved
P ([4]; Danshensu 1×10^6 g/ml in perfusion system, 31 strips, 40 experiments): -2.54±0.48 mmHg
dilatation of coronary artery smooth muscle ([4]; isolated pig coronary artery): dilate the smooth muscle of coronary artery; also recorded: obvious dilatation effect
fibrinolysis [5]: relatively weaker function in fibrinolysis
blood flow of coronary artery ([5]; isolated heart): increasing the blood flow of coronary artery
pharmacokinetic model [6]: single ventricular model
half-life ([6]; rabbit, in vivo, iv, 5 rabbits, read-out: biological half-life t1/2): 16.6 min
Danshensu content, adrenal tissue average [7]: 14.15 µg/g
Danshensu content, brain tissue average [7]: 5.45 µg/g
Danshensu content, heart tissue average [7]: 12.30 µg/g
Danshensu content, liver tissue average [7]: 17.69 µg/g
Danshensu content, lung tissue average [7]: 19.73 µg/g
Danshensu content, spleen tissue average [7]: 4.66 µg/g

Puerarin
lowering of LVSD ([8]; 20 mg/kg i.v., 5 minutes after blockage): 10.14%
myocardial infarction scope (N-BT) ([8]; 20 mg/kg i.v., 6 hours later): reduces significantly
aortic pressure ([8]; intravenous injection): lower the aortic pressure
release of myocardial CPK ([8]; ischemia and reperfusion): lowers the release of myocardial CPK
myocardial index ([9]; 30 minutes and 2 hours after (p<0.01, P=0.05)): clearly reduces
genesis rate of infarction expansion ([9]; human, in vivo): obviously lowers
blood 6-K-PGF1a and High Density Lipid (HDL) level [10]: heighten
ratio of TXB2/6-K-PGF1a [10]: reduces the ratio
arrhythmic time [11]: shorten the arrhythmic time
competition with the labeled ligand ([12]; conjugated competition): able to compete with the labeled ligand
maximum combination capacity of the β-receptor ([12]; rats's myocardial membrane): clearly reduce the maximum combination capacity
adrenal gland's activation of dissolved adenylate cyclase [13]: completely inhibit
carboxylic proline, external fluid of endothelial cells [14]: 2.43 ± 0.21 µg/mL
carboxylic proline, internal fluid of endothelial cells [14]: 2.70 ± 0.06 µg/mL
osamine polysaccharide, first value (internal fluid) [14]: 0.95 ± 0.12 µg/mL
osamine polysaccharide, second value [14]: 0.68 ± 0.15 µg/mL
secreted from the bile ([15]; intravenous injection): 3.65%
secreted from the stool ([15]; intravenous injection): 7.39%
secreted from the urine ([15]; intravenous injection): 37.62%
tissue content ([15]; intravenous injection): the content in kidney is highest, blood plasma takes second place and the brain has lesser
oral absorption ([15]; oral): absorbed faster but not complete
excreted as stool ([15]; oral, 24 hours): 35.7%
excreted as urine ([15]; oral, 24 hours): 1.85%
medication volume retrieved from gastrointestinal substance and stool ([15]; oral, after 24 hours): 37.3 % of the volume administrated
secreted from the urine ([16]; 36 hours): 0.78%
secreted from the stool ([16]; 72 hours): 73.3%
mutation rate (MR) [17]: < 2
occurrence rate of polychromatic erythrocytes micronucleus versus negative contrast [18]: no obvious difference
deformation of appearance, organ or bone of fetal mice [19]: not found
survival fetal number, absorption fetal number, weight, length, tail length versus control [19]: no obvious difference
pharmacokinetic model [20]: 3-ventricle open model
pharmacokinetic model [21]: 2-ventricle open model
